{"source": "patent US20130217092A1", "about": "“Enhancing Reactivation of Thermostable Reversibly Inactivated Enzymes” (Qiagen GmbH, priority 2006, published 2013)", "type_in_all_cases": "biochemical", "key": {"[1]": {"target": "chemically modified enzyme (Thermus aquaticus, UniProt P19821)", "sequence (P19821 whole entry)": "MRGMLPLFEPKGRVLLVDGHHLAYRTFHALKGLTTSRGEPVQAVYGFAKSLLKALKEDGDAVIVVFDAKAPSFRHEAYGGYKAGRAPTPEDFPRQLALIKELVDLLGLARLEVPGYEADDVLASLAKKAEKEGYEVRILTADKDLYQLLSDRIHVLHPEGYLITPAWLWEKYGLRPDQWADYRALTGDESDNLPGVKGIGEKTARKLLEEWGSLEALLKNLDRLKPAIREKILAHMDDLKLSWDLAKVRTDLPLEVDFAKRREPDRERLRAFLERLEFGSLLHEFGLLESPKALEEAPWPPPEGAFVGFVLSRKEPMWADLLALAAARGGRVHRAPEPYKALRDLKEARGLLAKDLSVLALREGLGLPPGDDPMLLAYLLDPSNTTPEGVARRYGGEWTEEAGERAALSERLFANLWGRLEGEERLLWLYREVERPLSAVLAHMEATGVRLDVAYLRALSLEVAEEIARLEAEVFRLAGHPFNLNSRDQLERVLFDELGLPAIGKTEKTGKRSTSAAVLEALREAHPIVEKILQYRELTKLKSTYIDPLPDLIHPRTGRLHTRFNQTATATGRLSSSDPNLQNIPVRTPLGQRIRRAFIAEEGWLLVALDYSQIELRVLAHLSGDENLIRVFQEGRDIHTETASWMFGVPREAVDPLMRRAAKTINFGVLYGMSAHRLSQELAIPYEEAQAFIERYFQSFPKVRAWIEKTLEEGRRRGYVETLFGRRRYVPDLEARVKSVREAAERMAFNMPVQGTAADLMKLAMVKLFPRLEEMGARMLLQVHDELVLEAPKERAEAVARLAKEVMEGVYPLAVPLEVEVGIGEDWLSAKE", "test": "Additionally tested compounds, enhancement of enzyme activity of a chemically modified enzyme", "conditions": "conditions not stated"}, "[2]": {"target": "T1, HotStarTaq DNA Polymerase (Thermus aquaticus, UniProt P19821)", "T1 construct": "purchased QIAGEN", "T1 sequence (P19821 whole entry)": "as above", "test": "Fast PCR with ammonium chloride, agarose gel, Example 4", "conditions": "10, 20 and 30 mM ammonium chloride vs 0 mM; PCR assays A, B, C; FIG. 3", "protocol": "Each PCR reaction contained 1.5 units HotStarTaq DNA Polymerase, 10 ng template human or mouse genomic DNA, 200 μM of each dNTP, 0.5 μM of each primer for each different PCR assay (Assay A, primer A1: 5′-GCTTGAGCAACCTGGCTAAGATAGAGG-3′ (SEQ ID NO:7), primer A2: 5′-GAGTTAGCAGGAGGCTGGATGCAGATG-3′ (SEQ ID NO:8); Assay B, primer B1: 5′-CCACAATGGACATCACACAAGTGAG-3′ (SEQ ID NO:9), primer B2: 5′-GATCTTTCTGCCCAGATACCATTCG-3′ (SEQ ID NO:10); Assay C, primer C1: 5′-CCTTGCCTTAGATGTGTCGGCA-3′ (SEQ ID NO:11), primer C2: 5′-CCCAAACCCAACCCATACACAC-3′ (SEQ ID NO:12)) and PCR grade water. PCR reactions were started with an initial enzyme activation step at 95° C. for 5 minutes followed by 35 cycles: 96° C. for 5 seconds, 60° C. for 5 seconds and 68° C. for 30 seconds/kb PCR product size. PCR products were analysed on a 1% TAE agarose gel. M: DNA size ladder (FIG. 3)."}, "[3]": {"target": "T2, unmodified Taq DNA Polymerase (QIAGEN) (Thermus aquaticus, UniProt P19821)", "T2 construct": "purchased QIAGEN", "T2 sequence (P19821 whole entry)": "as the sequence (P19821 whole entry) above", "test": "SYBR Green I real-time PCR, Example 1 (control enzyme)", "description": "(§1) In real-time PCR, the enzymatic reaction is continuously monitored by measuring fluorescence signals throughout the reaction. Double-stranded DNA molecules are generated during the PCR reaction. These PCR products are detected by using SYBR Green I fluorescent dye that binds selectively to dsDNA only. Thus, an increase of fluorescence indicates an increase in PCR product amount and thus activity of the DNA polymerase contained in the reaction. […] Thus, the CT value is a measurement for the enzyme activity contained in the reaction: Low CT values indicate high enzyme activity and high CT values represent lower enzyme activity residing in the reaction.\nA SYBR Green I based PCR reaction was conducted in the presence of unmodified Taq DNA Polymerase (QIAGEN) serving as a control reaction, using HotStarTaq DNA polymerase (QIAGEN) or AmpliTaq Gold (Applied Biosystems). Each reaction contained 0.625 units of the respective DNA polymerase, 1× PCR reaction buffer of the respective DNA polymerase, 200 μM of each dNTP, 0.5 μM primer A: 5′-[…]-3′ (SEQ ID NO:1), 0.5 μM primer B: 5′-[…]-3′ (SEQ ID NO:2), PCR grade water and in case of testing nitrogen-containing compounds as example 100 mM Triazole, final concentration. […] Average CT values were determined from triplicate reactions comparing reactions without the addition of Triazole and with 100 mM Triazole."}, "[4]": {"target": "T3, AmpliTaq Gold (Applied Biosystems) (Thermus aquaticus, UniProt P19821)", "T3 construct": "purchased Applied Biosystems", "T3 sequence (P19821 whole entry)": "as the sequence (P19821 whole entry) above", "test": "SYBR Green I real-time PCR, Example 1, reactivation of chemically modified enzyme", "description": "(§2) As model system to exemplify the invention, hot start PCR was chosen with two commercially available enzymes. […] AmpliTaq Gold (Applied Biosystems) is chemically inactivated using dicarboxylic acid anhydride whereas HotStarTaq (QIAGEN) is chemically inactivated using formaldehyde.\nas §1\n(§3) A SYBR Green I based PCR reaction was conducted in the presence of unmodified Taq DNA Polymerase (QIAGEN) serving as a control reaction, using HotStarTaq DNA polymerase (QIAGEN) or AmpliTaq Gold (Applied Biosystems). Each reaction contained 0.625 units of the respective DNA polymerase, 1× PCR reaction buffer of the respective DNA polymerase, 200 μM of each dNTP, 0.5 μM primer A: 5′-[…]-3′ (SEQ ID NO:1), 0.5 μM primer B: 5′-[…]-3′ (SEQ ID NO:2), PCR grade water and in case of testing nitrogen-containing compounds as example 100 mM Triazole, final concentration. Each reaction contained 10 ng human genomic DNA as amplification substrate. PCR reactions were started with an initial enzyme activation step at 95° C. for 5 minutes followed by 50 cycles: 94° C. for 15 seconds and 60° C. for 60 seconds. Average CT values were determined from triplicate reactions comparing reactions without the addition of Triazole and with 100 mM Triazole."}, "[5]": {"target": "T4, HotStarTaq DNA polymerase (QIAGEN) (Thermus aquaticus, UniProt P19821)", "T4 construct": "purchased QIAGEN", "T4 sequence (P19821 whole entry)": "as the sequence (P19821 whole entry) above", "test": "SYBR Green I real-time PCR, Example 1, reactivation of chemically modified enzyme", "description": "as §2, §1, §3"}, "[6]": {"target": "T1, HotStarTaq DNA Polymerase", "test": "Fast PCR with shortened cycling times, agarose gel, Example 2", "conditions": "100, 200, 300, 400 and 500 mM Triazole vs absence of Triazole; FIG. 1", "protocol": "Each PCR reaction contained 1.5 units HotStarTaq DNA Polymerase, 10 ng template human genomic DNA, 200 μM of each dNTP, 0.5 μM primer A: 5′-CACACAGCGATGGCAGCTATGC-3′ (SEQ ID NO:3), 0.5 […] primer B: 5′-CCC AGT GAT GGG CCA GCT C-3′ (SEQ ID NO:4), PCR grade water and in case of testing nitrogen-containing compounds as example 100 mM, 200 mM, 300 mM, 400 mM and 500 mM Triazole, final concentration. PCR reactions were started with an initial enzyme activation step at 95° C. for 5 minutes followed by 35 cycles: 96° C. for 5 seconds, 60° C. for 5 seconds and 68° C. for 30 seconds. PCR products were analysed on a 1% TAE agarose gel (FIG. 1)."}, "[7]": {"target": "T1, HotStarTaq DNA Polymerase", "test": "Fast PCR with 20 mM ammonium chloride and Triazole, agarose gel, Example 5", "protocol": "System C shown in Example 4 was chosen as model system. Each PCR reaction contained 1.5 units HotStarTaq DNA Polymerase, 10 ng template human genomic DNA, 200 μM of each dNTP, 0.5 μM of each primer A: 5′-CCTTGCCTTAGATGTGTCGGCA-3′ (SEQ ID NO:11), primer B: 5′-CCCAAACCCAACCCATACACAC -3′ (SEQ ID NO:12), and PCR grade water. PCR reactions were started with an initial enzyme activation step at 95° C. for 5 minutes followed by 35 cycles: 96° C. for 5 seconds, 60° C. for 5 seconds and 68° C. for 45 seconds. PCR products from duplicate reactions were analysed on a 1% TAE agarose gel. M: DNA size ladder."}}, "data": [{"compound": "N.O=C(O)c1ccccc1", "note": "[ammonium benzoate]", "values": [{"measurement": "improvement of enzyme activity", "setting": "[1]", "value": "no improvement"}]}, {"compound": "N.N.O=C(O)O", "note": "[ammonium carbonate]", "values": [{"measurement": "improvement of enzyme activity", "setting": "[1]", "value": "no improvement"}]}, {"compound": "Cl.N", "note": "[ammonium chloride]", "values": [{"measurement": "overall enzyme activity of the chemically inactivated enzyme", "setting": "[2]", "value": "increase of overall enzyme activity"}]}, {"compound": "N.N.O=S(=O)(O)O", "note": "[ammonium sulfate]", "values": [{"measurement": "improvement of enzyme activity", "setting": "[1]", "value": "no improvement"}]}, {"compound": "N.N.O=P(O)(O)O", "note": "[di-ammonium hydrogen phosphate]", "values": [{"measurement": "improvement of enzyme activity", "setting": "[1]", "value": "no improvement"}]}, {"compound": "Triazole", "values": [{"measurement": "effect on the enzyme activity", "setting": "[3]; 100 mM Triazole, unmodified Taq DNA polymerase", "value": "no effect"}, {"measurement": "Average CT value with 100 mM Triazole", "setting": "[3]; Taq (unmodified), activation 95° C. for 5 minutes, triplicate reactions, low CT = high enzyme activity", "value": 21.3}, {"measurement": "effect on the enzyme activity", "setting": "[4]; 100 mM Triazole", "value": "clearly higher enzyme activity"}, {"measurement": "Average CT value with 100 mM Triazole", "setting": "[4]; activation 95° C. for 5 minutes, triplicate reactions, low CT = high enzyme activity", "value": 25.6}, {"measurement": "effect on the enzyme activity", "setting": "[5]; 100 mM Triazole, HotStarTaq DNA Polymerase", "value": "clearly higher enzyme activity"}, {"measurement": "Average CT value with 100 mM Triazole", "setting": "[5]; HotStarTaq, activation 95° C. for 5 minutes, triplicate reactions, low CT = high enzyme activity", "value": 35.9}, {"measurement": "enzyme activity / generation of the desired PCR product under fast cycling", "setting": "[6]", "value": "significantly improves enzyme activity"}, {"measurement": "enzyme activity of the chemically modified enzyme", "setting": "[7]; 500 mM Triazole in the presence of 20 mM ammonium chloride", "value": "still higher than in the reaction without Triazole"}, {"measurement": "enzyme activity of the chemically modified enzyme", "setting": "[7]; Triazole 100-500 mM in the presence of 20 mM ammonium chloride vs no Triazole, FIG. 4", "value": "clear benefit for the enzyme activity"}]}, {"compound": "ammonium citrate", "values": [{"measurement": "improvement of enzyme activity", "setting": "[1]", "value": "no improvement"}]}]}
